{"source": "patent US20160199434A1", "about": "“COMPOSITIONS AND METHODS FOR MODULATING DNA METHYLATION” (OHIO STATE INNOVATION FOUNDATION, priority 2013, published 2016)", "test_system": "human A375 melanoma cells", "assay": "Tumor growth of human A375 melanoma cells implanted in SCID mice", "assay_type": "in vivo, mouse", "details": "19 days after palpable tumor formation, AKB-6899 17.5 mg/kg, Docetaxel 30 mg/kg", "procedure": "During treatment, tumor growth was determined. Animals were treated with one the following combinations: vehicle/vehicle, vehicle/AKB-6899 (17.5 mg/kg), Docetaxel (30 mg/kg)/vehicle, or Docetaxel/AKB-6899. 19 days after palpable tumor formation, the tumors in the mice receiving the vehicle/AKB-6899 combination had tumors that were 74% the size of control; the tumors in the mice receiving Docetaxel/vehicle combination had tumors that were 49% the size of control; and the tumors in the mice receiving the Docetaxel/AKB-6899 combination had tumors that were 13% the size of control."}
{"smiles": "CC(=O)O[C@@]12CO[C@@H]1C[C@H](O)[C@@]1(C)C(=O)[C@H](O)C3=C(C)[C@@H](OC(=O)[C@H](O)[C@@H](NC(=O)OC(C)(C)C)c4ccccc4)C[C@@](O)([C@@H](OC(=O)c4ccccc4)[C@H]21)C3(C)C", "note": "[Docetaxel, reference compound]", "values": [{"measurement": "tumor size relative to control", "result": 49, "unit": "%"}]}
